Measurements reported in publication PMC3904487, “The effect of piperine on midazolam plasma concentration in healthy volunteers, a research on the CYP3A-involving metabolism” (DARU Journal of Pharmaceutical Sciences, 2014).
Values joined by “and” are separate entries in the source; they are usually repeats but may differ in a detail not shown here. Equal entries are not always repeated.

Tests used:
[1] = Clinical features (sedation, amnesia, side effects) after oral midazolam in placebo and piperine pretreatment groups; type: in vivo, human; conditions: midazolam 10 mg oral; for End of drug effect / duration of sedation / Onset of drug effect (sedative effect of midazolam): n=20, mean (±SD)
[2] = Midazolam plasma concentration (HPLC) and one-compartment PK after placebo or piperine pretreatment in healthy volunteers
Text: This was a cross-over controlled study on two groups (n=10) of healthy volunteers. A one-month period was considered as wash out time between two trials. […] Inclusion criteria: being healthy; age ranging 18 to 35; normal diet; not receiving microsomal enzyme inhibitor or inducer agents for at least 7 days before the study; not using black pepper for at least 7 days before the study. Exclusion criteria: age being below 18 and above 35; smocking; pregnancy; metabolic disorders; high pepper diet, receiving enzyme inhibitors or inducers.
Healthy volunteers regardless of gender were randomly divided into two control and piperine receiving groups (n=20 per group). The subject received placebo or piperine (1 capsule 15 mg of piperine daily for 3 days before midazolam) and midazolam (10 mg as an oral single dose) on fourth day of the study. […] Blood samples (maximum 10 ml) were taken at 0.5, 2.5 and 5 hour after midazolam administration. After a month as a wash out period, the treatment program was exchanged between placebo and piperine groups and all steps were done as same as the previous.
Blood samples were transferred into labeled tubes containing Ca-EDTA and shake gently to mix Ca-EDTA with blood for preventing of coagulation.The samples were centrifuged at 3500 ×g for 15 min and supernatant plasma layer transferred into a blank tube. Until the assay of midazolam or diazepam concentration, the plasma samples were kept at −20°C.
For measurement of the drugs concentration, plasma samples were removed from the freezer condition and left in the laboratory to convert from frozen into a liquid sample. Then 0.5 ml of thawed plasma sample was transferred into a capped falcon tube. In the next step, 100 micl of 1 M NaOH and 100 micl isoamyl alcohol were added. After a gently shaking, 4.5 ml of n-hexan was added and shake for 1 minute. The final solutions were centrifuged at 300 ×g for 5 min. After this step, 4.2 ml of supernatant was drawn and transferred into a plastic tube and 100 miclof 0.05 M HCl was added to the solution and centrifuged similar as the previous. Then the supernatant (organic layer) was discarded and the remaining was directly injected into the HPLC.
The separation was carried out at ambient temperature using a single-column isocratic reverse-phase method. The mobile phase consisted of 75% methanol and 25% water. Flow rate was set at 0.8 ml/min. The extracts were detected by UV detector at 242 nm wavelength. Twenty micl of the aqueous layer of final extract was injected into the HPLC using a Hamilton’s syringe. The injection was repeated 3 times for each sample. Peaks area and height were considered for midazolam and diazepam detection and used for calculation of the drugs concentration in the final plasma extract.
The second; pharmacokinetic (PK) parameters such as absorption rate constant (Ka), clearance, half-life and volume of distribution of midazolam in the placebo and piperine groups were calculated based on assumed one-compartment kinetics using P-Pharm software.
Based on non-parametric distribution, data of three concentrations by time were analyzed using Friedman test. Wilcoxon U-test was used for the results of clearance, volume of distribution and half-life of midazolam in piperine group compared to placebo. The difference of the PK parameters between two groups was considered statistically significant at p<0.05.

[3] = placebo pretreatment, midazolam 10 mg oral, n=20
[4] = piperine 15 mg x 3 days pretreatment
[5] = piperine 15 mg x 3 days pretreatment, of n=20

Cc1ncc2n1-c1ccc(Cl)cc1C(c1ccccc1F)=NC2 [midazolam]
Subjects with severe sedation and dizziness ([1]; placebo pretreatment): 30% | End of drug effect / duration of sedation ([1]; placebo pretreatment): 102±43 min and 102 (±43) min | Onset of drug effect (sedative effect of midazolam) ([1]; placebo pretreatment): 11.25 (±4.5) min | Amnesia (frequency, subjects) ([1]; placebo pretreatment, of n=20): 4 | AUC(0-t) ([2]; both, human, plasma, po, 10 mg): 411 ± 235 ng·h/mL | half-life ([2]; both, human, plasma, po, 10 mg): 1.71 h | Time of maximum plasma midazolam concentration ([2]; placebo group, after midazolam 10 mg oral, population concentration-time curve): 1.5 h | Kel, elimination rate constant of midazolam (Max) [2, 3]: 0.42 | Kel, elimination rate constant of midazolam (Min) [2, 3]: 0.390 | Kel, elimination rate constant of midazolam (mean) [2, 3]: 0.41 | T1/2, half-life of midazolam (Max) [2, 3]: 1.78 h | T1/2, half-life of midazolam (Min) [2, 3]: 97.8 min | Volume (of distribution) of midazolam (Max) [2, 3]: 93.03 | Volume (of distribution) of midazolam (Min) [2, 3]: 87.63 | Volume (of distribution) of midazolam (mean) [2, 3]: 91.44

O=C(/C=C/C=C/c1ccc2c(c1)OCO2)N1CCCCC1 [Piperine, piperine]
Subjects with severe sedation and dizziness [1, 4]: 55% | End of drug effect / duration of sedation [1, 4]: 188 (±59) min | Onset of drug effect (sedative effect of midazolam) [1, 4]: 11.75 (±4.9) min | End of drug effect / duration of sedation ([1]; piperine 15 mg x 3 days pretreatment, listed as piperine): 188 ± 59 min | Amnesia (frequency, subjects) [1, 5]: 7 | Sedation (frequency, subjects) [1, 5]: 20 | Amnesia (frequency, subjects) ([1]; piperine 15 mg x 3 days pretreatment, of n=20, listed as piperine): Seven | Subjects with hiccup when receiving midazolam ([1]; piperine 15 mg x 3 days pretreatment, disappeared during first hours): One
